Assay results published in US20090176664A1, “High density peptide arrays containing kinase or phosphatase substrates” (priority 2007, published 2009).

Test system: Src and Abl kinases
Assay: Kinase inhibition assay with different kinase inhibitors on peptide array with Abl and Src peptide substrates
Assay type: biochemical
Settings: FIG. 23; Src and Abl kinases plus one of three inhibitors
Experimental: Activity is measured using peptide arrays with Abl and Src peptide substrates.

SMILES: COc1cc(Nc2c(C#N)cnc3cc(OCCCN4CCN(C)CC4)c(OC)cc23)c(Cl)cc1Cl [SKI606]
- specificity of the kinase inhibitor for their respective kinase: expected specificity
